Experimental data as given in patent US20240138411A1, “METHOD OF […] OF SUGARCANE” (CORTEVA AGRISCIENCE LLC, priority 2021, published 2024).

Tested on: sugarcane
Assay: Sugarcane flowering inhibition field trials, floral induction rated on UFSCar scale
Format: in vivo
Method: In order to explore the activity of florpyrauxifen as flowering inhibitor in sugarcane, field studies were carried out. Florpyrauxifen-benzyl was tested at rates from 2 to 20 grams active ingredient per hectare (g ai/ha) and compared to Ethrel® 720 (Bayer), the standard treatment. The flowering inhibition effect was assessed by checking the floral induction in sugarcane through the percentage scale recommended by UFSCar (Federal University of Sao Carlos, Sao Paulo, Brazil).
Four trials were carried out in sugarcane where florpyrauxifen-benzyl (Rinskor®), applied at a rate of 2 to 20 g ai/ha, was compared to ethephon (Ethrel® 720) applied at a rate of 475 g ai/ha. Control plots of untreated sugarcane were also evaluated. Rinskor® and Ethrel® 720 were diluted in water and a single application for each study (backpack sprayer) was performed delivering 50 L of spray solution per ha at the reproductive stage of sugarcane and at a maximum 150 days before harvest. The activity of florpyrauxifen-benzyl as a flowering inhibitor was measured via assessments (Scale of flowering inhibition—see chart 1) performed at 0, 14, 30, 45, 60, 75, 90, 120, 150 days after application, or up to harvest time. The assessments were measured in sugarcane stems, rating the flowering induction according to the UFSCar scale shown below. Significance of treatment effect was evaluated with F-approximate test (α=0.1) and least square means from different treatments were compared with Tukey's test.

SMILES: COc1c(Cl)ccc(-c2nc(C(=O)OCc3ccccc3)c(Cl)c(N)c2F)c1F [Rinskor, florpyrauxifen-benzyl]
- % Referring to Scale (Table 1, 75 DAA, 2 g ai/ha): 13.5%
- Frequency 1/1 (0%) (Table 1, 75 DAA, 2 g ai/ha): 12.5%
- Frequency 2/1 (15%) (Table 1, 75 DAA, 2 g ai/ha): 85.0%
- Frequency 3/1 (30%) (Table 1, 75 DAA, 2 g ai/ha): 2.5%
- Frequency 4/1 (50%) (Table 1, 75 DAA, 2 g ai/ha): 0.0%
- Frequency 4/2 (80%) (Table 1, 75 DAA, 2 g ai/ha): 0.0%
- Frequency 4/3 (90%) (Table 1, 75 DAA, 2 g ai/ha): 0.0%
- Frequency 4/4 (100%) (Table 1, 75 DAA, 2 g ai/ha): 0.0%
- % Referring to Scale (Table 1, 75 DAA, 5 g ai/ha): 14.6%
- Frequency 1/1 (0%) (Table 1, 75 DAA, 5 g ai/ha): 7.5%
- Frequency 2/1 (15%) (Table 1, 75 DAA, 5 g ai/ha): 87.5%
- Frequency 3/1 (30%) (Table 1, 75 DAA, 5 g ai/ha): 5.0%
- Frequency 4/1 (50%) (Table 1, 75 DAA, 5 g ai/ha): 0.0%
- Frequency 4/2 (80%) (Table 1, 75 DAA, 5 g ai/ha): 0.0%
- Frequency 4/3 (90%) (Table 1, 75 DAA, 5 g ai/ha): 0.0%
- Frequency 4/4 (100%) (Table 1, 75 DAA, 5 g ai/ha): 0.0%
- % Referring to Scale (Table 1, 75 DAA, 10 g ai/ha): 11.3%
- Frequency 1/1 (0%) (Table 1, 75 DAA, 10 g ai/ha): 25.0%
- Frequency 2/1 (15%) (Table 1, 75 DAA, 10 g ai/ha): 75.0%
- Frequency 3/1 (30%) (Table 1, 75 DAA, 10 g ai/ha): 0.0%
- Frequency 4/1 (50%) (Table 1, 75 DAA, 10 g ai/ha): 0.0%
- Frequency 4/2 (80%) (Table 1, 75 DAA, 10 g ai/ha): 0.0%
- Frequency 4/3 (90%) (Table 1, 75 DAA, 10 g ai/ha): 0.0%
- Frequency 4/4 (100%) (Table 1, 75 DAA, 10 g ai/ha): 0.0%
- % Referring to Scale (Table 1, 75 DAA, 15 g ai/ha): 10.1%
- Frequency 1/1 (0%) (Table 1, 75 DAA, 15 g ai/ha): 32.5%
- Frequency 2/1 (15%) (Table 1, 75 DAA, 15 g ai/ha): 67.5%
- Frequency 3/1 (30%) (Table 1, 75 DAA, 15 g ai/ha): 0.0%
- Frequency 4/1 (50%) (Table 1, 75 DAA, 15 g ai/ha): 0.0%
- Frequency 4/2 (80%) (Table 1, 75 DAA, 15 g ai/ha): 0.0%
- Frequency 4/3 (90%) (Table 1, 75 DAA, 15 g ai/ha): 0.0%
- Frequency 4/4 (100%) (Table 1, 75 DAA, 15 g ai/ha): 0.0%
- % Referring to Scale (Table 1, 75 DAA, 20 g ai/ha): 10.5%
- Frequency 1/1 (0%) (Table 1, 75 DAA, 20 g ai/ha): 30.0%
- Frequency 2/1 (15%) (Table 1, 75 DAA, 20 g ai/ha): 70.0%
- Frequency 3/1 (30%) (Table 1, 75 DAA, 20 g ai/ha): 0.0%
- Frequency 4/1 (50%) (Table 1, 75 DAA, 20 g ai/ha): 0.0%
- Frequency 4/2 (80%) (Table 1, 75 DAA, 20 g ai/ha): 0.0%
- Frequency 4/3 (90%) (Table 1, 75 DAA, 20 g ai/ha): 0.0%
- Frequency 4/4 (100%) (Table 1, 75 DAA, 20 g ai/ha): 0.0%
- % Referring to Scale (Table 1, 90 DAA, 2 g ai/ha): 13.1%
- Frequency 1/1 (0%) (Table 1, 90 DAA, 2 g ai/ha): 12.5%
- Frequency 2/1 (15%) (Table 1, 90 DAA, 2 g ai/ha): 87.5%
- Frequency 3/1 (30%) (Table 1, 90 DAA, 2 g ai/ha): 0.0%
- Frequency 4/1 (50%) (Table 1, 90 DAA, 2 g ai/ha): 0.0%
- Frequency 4/2 (80%) (Table 1, 90 DAA, 2 g ai/ha): 0.0%
- Frequency 4/3 (90%) (Table 1, 90 DAA, 2 g ai/ha): 0.0%
- Frequency 4/4 (100%) (Table 1, 90 DAA, 2 g ai/ha): 0.0%
- % Referring to Scale (Table 1, 90 DAA, 5 g ai/ha): 11.3%
- Frequency 1/1 (0%) (Table 1, 90 DAA, 5 g ai/ha): 25.0%
- Frequency 2/1 (15%) (Table 1, 90 DAA, 5 g ai/ha): 75.0%
- Frequency 3/1 (30%) (Table 1, 90 DAA, 5 g ai/ha): 0.0%
- Frequency 4/1 (50%) (Table 1, 90 DAA, 5 g ai/ha): 0.0%
- Frequency 4/2 (80%) (Table 1, 90 DAA, 5 g ai/ha): 0.0%
- Frequency 4/3 (90%) (Table 1, 90 DAA, 5 g ai/ha): 0.0%
- Frequency 4/4 (100%) (Table 1, 90 DAA, 5 g ai/ha): 0.0%
- % Referring to Scale (Table 1, 90 DAA, 10 g ai/ha): 14.3%
- Frequency 1/1 (0%) (Table 1, 90 DAA, 10 g ai/ha): 7.5%
- Frequency 2/1 (15%) (Table 1, 90 DAA, 10 g ai/ha): 90.0%
- Frequency 3/1 (30%) (Table 1, 90 DAA, 10 g ai/ha): 2.5%
- Frequency 4/1 (50%) (Table 1, 90 DAA, 10 g ai/ha): 0.0%
- Frequency 4/2 (80%) (Table 1, 90 DAA, 10 g ai/ha): 0.0%
- Frequency 4/3 (90%) (Table 1, 90 DAA, 10 g ai/ha): 0.0%
- Frequency 4/4 (100%) (Table 1, 90 DAA, 10 g ai/ha): 0.0%
- % Referring to Scale (Table 1, 90 DAA, 15 g ai/ha): 13.9%
- Frequency 1/1 (0%) (Table 1, 90 DAA, 15 g ai/ha): 7.5%
- Frequency 2/1 (15%) (Table 1, 90 DAA, 15 g ai/ha): 92.5%
- Frequency 3/1 (30%) (Table 1, 90 DAA, 15 g ai/ha): 0.0%
- Frequency 4/1 (50%) (Table 1, 90 DAA, 15 g ai/ha): 0.0%
- Frequency 4/2 (80%) (Table 1, 90 DAA, 15 g ai/ha): 0.0%
- Frequency 4/3 (90%) (Table 1, 90 DAA, 15 g ai/ha): 0.0%
- Frequency 4/4 (100%) (Table 1, 90 DAA, 15 g ai/ha): 0.0%
- % Referring to Scale (Table 1, 90 DAA, 20 g ai/ha): 13.5%
- Frequency 1/1 (0%) (Table 1, 90 DAA, 20 g ai/ha): 15.0%
- Frequency 2/1 (15%) (Table 1, 90 DAA, 20 g ai/ha): 80.0%
- Frequency 3/1 (30%) (Table 1, 90 DAA, 20 g ai/ha): 5.0%
- Frequency 4/1 (50%) (Table 1, 90 DAA, 20 g ai/ha): 0.0%
- Frequency 4/2 (80%) (Table 1, 90 DAA, 20 g ai/ha): 0.0%
- Frequency 4/3 (90%) (Table 1, 90 DAA, 20 g ai/ha): 0.0%
- Frequency 4/4 (100%) (Table 1, 90 DAA, 20 g ai/ha): 0.0%
- % Referring to Scale (Table 1, 120 DAA, 2 g ai/ha): 13.9%
- Frequency 1/1 (0%) (Table 1, 120 DAA, 2 g ai/ha): 7.5%
- Frequency 2/1 (15%) (Table 1, 120 DAA, 2 g ai/ha): 92.5%
- Frequency 3/1 (30%) (Table 1, 120 DAA, 2 g ai/ha): 0.0%
- Frequency 4/1 (50%) (Table 1, 120 DAA, 2 g ai/ha): 0.0%
- Frequency 4/2 (80%) (Table 1, 120 DAA, 2 g ai/ha): 0.0%
- Frequency 4/3 (90%) (Table 1, 120 DAA, 2 g ai/ha): 0.0%
- Frequency 4/4 (100%) (Table 1, 120 DAA, 2 g ai/ha): 0.0%
- % Referring to Scale (Table 1, 120 DAA, 5 g ai/ha): 12.8%
- Frequency 1/1 (0%) (Table 1, 120 DAA, 5 g ai/ha): 15.0%
- Frequency 2/1 (15%) (Table 1, 120 DAA, 5 g ai/ha): 85.0%
- Frequency 3/1 (30%) (Table 1, 120 DAA, 5 g ai/ha): 0.0%
- Frequency 4/1 (50%) (Table 1, 120 DAA, 5 g ai/ha): 0.0%
- Frequency 4/2 (80%) (Table 1, 120 DAA, 5 g ai/ha): 0.0%
- Frequency 4/3 (90%) (Table 1, 120 DAA, 5 g ai/ha): 0.0%
- Frequency 4/4 (100%) (Table 1, 120 DAA, 5 g ai/ha): 0.0%
- % Referring to Scale (Table 1, 120 DAA, 10 g ai/ha): 13.9%
- Frequency 1/1 (0%) (Table 1, 120 DAA, 10 g ai/ha): 7.5%
- Frequency 2/1 (15%) (Table 1, 120 DAA, 10 g ai/ha): 92.5%
- Frequency 3/1 (30%) (Table 1, 120 DAA, 10 g ai/ha): 0.0%
- Frequency 4/1 (50%) (Table 1, 120 DAA, 10 g ai/ha): 0.0%
- Frequency 4/2 (80%) (Table 1, 120 DAA, 10 g ai/ha): 0.0%
- Frequency 4/3 (90%) (Table 1, 120 DAA, 10 g ai/ha): 0.0%
- Frequency 4/4 (100%) (Table 1, 120 DAA, 10 g ai/ha): 0.0%
- % Referring to Scale (Table 1, 120 DAA, 15 g ai/ha): 13.9%
- Frequency 1/1 (0%) (Table 1, 120 DAA, 15 g ai/ha): 7.5%
- Frequency 2/1 (15%) (Table 1, 120 DAA, 15 g ai/ha): 92.5%
- Frequency 3/1 (30%) (Table 1, 120 DAA, 15 g ai/ha): 0.0%
- Frequency 4/1 (50%) (Table 1, 120 DAA, 15 g ai/ha): 0.0%
- Frequency 4/2 (80%) (Table 1, 120 DAA, 15 g ai/ha): 0.0%
- Frequency 4/3 (90%) (Table 1, 120 DAA, 15 g ai/ha): 0.0%
- Frequency 4/4 (100%) (Table 1, 120 DAA, 15 g ai/ha): 0.0%
